Laboratory results from the OPERA property sets (Mansouri et al. 2018).
In brackets after ≈: the same amount, converted by molar mass.

| solubility (25 °C) | Structure (SMILES) | other results |
| --- | --- | --- |
| 0.57 mM (≈ 48 µg/mL) | C=CCC(C)C | – |
| – | Cc1cc(C)c(N)cc1C | solubility: 11.1 mM (≈ 1500 µg/mL) |
| – | O=NN1CCCCC1 | solubility (24 °C): 670 mM (≈ 76500 µg/mL) |
| – | c1cc2c3c(c1)ccc1cccc(c13)C2 | solubility (27 °C): 0.00578 mM (≈ 1.1 µg/mL) |
| – | O=C(O)CCCCCCCCCC(=O)O | solubility (21 °C): 23.6 mM (≈ 5100 µg/mL) |
| 0.00571 mM (≈ 1.52 µg/mL) | C[C@]12CCc3c(ccc4cc(O)ccc34)[C@@H]1CCC2=O | – |
| – | Clc1ccc(-c2cc(Cl)c(Cl)cc2Cl)cc1Cl | solubility (20 °C): 4.1e-05 mM (≈ 0.0134 µg/mL) |
| – | Nc1nc(=O)c2[nH]c(=O)c(=O)[nH]c2[nH]1 | solubility: 0.00683 mM (≈ 1.33 µg/mL) |
| 14.9 mM (≈ 2490 µg/mL) | O=C(O)c1ccnc(C(=O)O)c1 | – |
| – | CCC(Cl)(Cl)[N+](=O)[O-] | solubility (20 °C): 31.7 mM (≈ 5000 µg/mL) |
| – | COc1ccc(C=O)c(C(=O)O)c1OC | solubility (20 °C): 11.9 mM (≈ 2500 µg/mL) |
| – | Cc1c2ccccc2cc2c1ccc1ccccc12 | solubility (24 °C): 4.54e-05 mM (≈ 0.011 µg/mL) |
| – | CC(=O)Nc1nnc(S(N)(=O)=O)s1 | solubility (30 °C): 4.41 mM (≈ 980 µg/mL) |
| – | CC[C@H](Br)C(=O)O | solubility: 419 mM (≈ 70000 µg/mL) |
| 3.58 mM (≈ 509 µg/mL) | Cc1c[nH]c(=S)[nH]c1=O | – |
| – | C#C[C@]1(O)CC[C@H]2[C@@H]3CCc4cc(O)ccc4[C@H]3CC[C@@]21C | solubility (27 °C): 0.0381 mM (≈ 11.3 µg/mL) |
| 5.53 mM (≈ 709 µg/mL) | O=c1cc[nH]c(=S)[nH]1 | – |
| 24.8 mM (≈ 3030 µg/mL) | O=C(O)c1ccccc1 | – |
| – | Clc1ccc(-c2c(Cl)cc(Cl)c(Cl)c2Cl)cc1Cl | solubility (20 °C): 2.24e-05 mM (≈ 0.00807 µg/mL) |
| – | Oc1cc(O)ncn1 | solubility (20 °C): 22.3 mM (≈ 2500 µg/mL) |
| – | c1ccc(C(c2ccccc2)(c2ccccc2)N2CCOCC2)cc1 | solubility (20 °C): 6.07e-05 mM (≈ 0.02 µg/mL) |
| – | Cc1c(C)c2c3ccccc3ccc2c2ccccc12 | solubility (27 °C): 9.75e-05 mM (≈ 0.025 µg/mL) |
| 0.00639 mM (≈ 1.51 µg/mL) | Cc1cnc2c(ccc3c(C)c(C)cnc32)c1C | – |
| – | COC(=O)c1ccccc1O | solubility (30 °C): 48.6 mM (≈ 7400 µg/mL) |
| 0.308 mM (≈ 77 µg/mL) | Nc1ccc(S(=O)(=O)Nc2ncccn2)cc1 | – |
| – | NC(=O)CC(N)C(=O)O (stereo not drawn) | solubility (23 °C): 172 mM (≈ 22700 µg/mL) |
| 51.4 mM (≈ 7200 µg/mL) | O=C(O)c1ccccc1F | – |

| solubility (25 °C) | Structure (SMILES) | other results |
| --- | --- | --- |
| – | Nc1cnn(-c2ccccc2)c(=O)c1Cl | solubility (20 °C): 1.8 mM (≈ 400 µg/mL) |
| – | COP(=S)(OC)Oc1ccc([N+](=O)[O-])c(Cl)c1 | solubility (20 °C): 0.134 mM (≈ 40 µg/mL) |
| – | CNc1ccccc1C(=O)O | solubility (20 °C): 1.32 mM (≈ 200 µg/mL) |
| – | NC(=O)CCl | solubility (24 °C): 962 mM (≈ 90000 µg/mL) |
| 4790 mM (≈ 700000 µg/mL) | CCCC(C(=O)O)C(=O)O | – |
| – | Clc1ccc(Cl)c(-c2cccc(Cl)c2Cl)c1 | solubility (20 °C): 0.000342 mM (≈ 0.1 µg/mL) |
| – | CC(Cl)C(C)Cl (stereo not drawn) | solubility (20 °C): 4.42 mM (≈ 562 µg/mL) |
| 0.0236 mM (≈ 4.3 µg/mL) | c1ccc(CCc2ccccc2)cc1 | – |
| 0.261 mM (≈ 22.5 µg/mL) | CC(C)C(C)C | – |
| – | COc1ccc(C(=O)c2cccc(C)c2)cc1C | solubility (20 °C): 0.00832 mM (≈ 2 µg/mL) |
| – | Cc1cc(Cl)ccc1N=CN(C)C | solubility (20 °C): 1.37 mM (≈ 270 µg/mL) |
| – | CCCCOC=O | solubility (27 °C): 74 mM (≈ 7560 µg/mL) |
| 90.6 mM (≈ 10800 µg/mL) | c1ccc2c(c1)CCN2 | – |
| 0.00887 mM (≈ 1.12 µg/mL) | C=CCCCCCCC | – |
| – | CCCCCCCCCCCCC(=O)O | solubility (20 °C): 0.154 mM (≈ 33 µg/mL) |
| 72.3 mM (≈ 11000 µg/mL) | COc1cc(C=O)ccc1O | – |
| 0.0342 mM (≈ 3.84 µg/mL) | CC1CCC(C)CC1 (stereo not drawn) | – |
| 0.0196 mM (≈ 2.24 µg/mL) | CC(C)CC(C)(C)C | – |
| 0.0365 mM (≈ 4.1 µg/mL) | C=CCCCCCC | – |
| – | CC(Cl)[N+](=O)[O-] (stereo not drawn) | solubility (20 °C): 36.5 mM (≈ 4000 µg/mL) |
| – | C#CC=C | solubility (30 °C): 34.3 mM (≈ 1790 µg/mL) |
| – | FC(F)(F)c1cccc(C(c2ccccc2)(c2ccccc2)n2cncn2)c1 | solubility (20 °C): 3.95e-06 mM (≈ 0.0015 µg/mL) |
| – | COP(=S)(OC)Oc1ccc(C#N)cc1 | solubility (30 °C): 0.189 mM (≈ 46 µg/mL) |
| 32.1 mM (≈ 3600 µg/mL) | O=c1cc[nH]c(=O)[nH]1 | – |
| – | Cc1cc(NS(=O)(=O)c2ccc(N)cc2)nc(C)n1 | solubility: 5.79 mM (≈ 1610 µg/mL) |
| – | CN(C)CCCN1c2ccccc2CCc2ccccc21 | solubility (24 °C): 0.065 mM (≈ 18.2 µg/mL) |

| Structure (SMILES) | solubility (25 °C) | other results |
| --- | --- | --- |
| O=[N+]([O-])c1ccccc1O | 18 mM (≈ 2500 µg/mL) | – |
| Clc1cc(Cl)c(Cl)c(Cl)c1 | 0.0236 mM (≈ 5.1 µg/mL) | – |
| COP(=S)(OC)SCCSC(C)C | 0.373 mM (≈ 97 µg/mL) | – |
| O=C(O)COc1ccc(Cl)cc1 | 5.13 mM (≈ 957 µg/mL) | – |
| CCC(O)(CC)CC | 145 mM (≈ 16800 µg/mL) | – |
| COP(=O)(OC)OC | 3570 mM (≈ 500000 µg/mL) | – |
| CCOC(=S)SSC(=S)OCC | 0.0114 mM (≈ 2.76 µg/mL) | – |
| Cc1c2ccccc2c(C)c2ccccc12 | 0.000271 mM (≈ 0.056 µg/mL) | – |
| CNC(=O)ON=C(C)SC | 358 mM (≈ 58000 µg/mL) | – |
| c1ccc2c(c1)Cc1cc3ccccc3cc1-2 | 1.1e-05 mM (≈ 0.00238 µg/mL) | – |
| Cc1cccc2sc3nncn3c12 | 8.45 mM (≈ 1600 µg/mL) | – |
| Clc1ccc2c(c1)Oc1cc(Cl)ccc1O2 | 6.6e-05 mM (≈ 0.0167 µg/mL) | – |
| CC(C)(OO)c1ccccc1 | 91.3 mM (≈ 13900 µg/mL) | – |
| Clc1ccc(Cl)c(-c2ccccc2)c1 | 0.00502 mM (≈ 1.12 µg/mL) | – |
| C=C(Cl)CSC(=S)N(CC)CC | 0.447 mM (≈ 100 µg/mL) | – |
